Reference: PMC9313426, “CDI Exerts Anti-Tumor Effects by Blocking the FoxM1-DNA Interaction” (Biomedicines, 2022)

Target: T1, FoxM1 (Homo sapiens, UniProt Q08050)
T1 sequence (Q08050 222-360 limits assumed): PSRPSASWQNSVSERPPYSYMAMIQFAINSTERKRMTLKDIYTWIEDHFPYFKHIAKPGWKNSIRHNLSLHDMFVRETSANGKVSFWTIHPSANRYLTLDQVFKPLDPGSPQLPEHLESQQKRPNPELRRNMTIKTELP
Test: TR-FRET FoxM1-DBD/biotinylated dsDNA binding inhibition assay

CC(C)C1=C[C@@]23CC[C@@H]4[C@](C)(CCC[C@@]4(C)C(=O)O)[C@H]2C[C@@H]1[C@H]1C(=O)C=C(Cl)C(=O)[C@H]13 [CDI, (4aR,4bS,6aR,7R,10aR,10bR,12R,12aR)-3-Chloro-4,4a,5,6,6a,7,8,9,10,10a,10b,11,12,12a-tetradecahydro-7,10a-dimethyl-13-(1-methylethyl)-1,4-dioxo-1H-4b,12-ethenochrysene-7-carboxylic acid]
IC50: 4.9 ± 1.5 µM

Nc1c(C(=O)Nc2ccc(F)cc2)sc2nc(-c3cccs3)cc(C(F)(F)F)c12 [FDI-6]
IC50: 3.7 ± 0.9 µM
